Calls of active or inactive are those of the source. The rule behind the calls is not given here.
Assays:
[1] = test system: MEF; experiment: Cytotoxicity against NMRI mouse MEF cells assessed as effect on cell proliferation by measuring effect on renilla activity at 10 uM incubated for 3 days by luminescence based analysis; conditions: 72 h, time 3 day
[2] = test system: MEF; experiment: Neuro-regenerative activity in NMRI mouse MEF cells transfected with human DCX promoter-driven firefly luciferase reporter assessed as induction of neuronal differentiation at 10 uM incubated for 3 days by luciferase reporter gene based luminescence analysis relative to control; assay type: functional; conditions: time 3 day
[3] = test system: MEF; experiment: Neuro-regenerative activity in NMRI mouse MEF cells transfected with human DCX promoter-driven firefly luciferase reporter assessed as induction of neuronal differentiation at 10 uM incubated for 3 days by luciferase reporter gene based luminescence analysis; assay type: functional, cell-based; conditions: time 3.0 day

Compound | Activity [1] | Ratio [2] | Activity [3]
COc1cc(O)c(CC=C(C)C)c(O)c1C(=O)/C=C/c1ccc(O)cc1 [XANTHOHUMOL] | Toxic | 5.55 | 
COc1cc2c(c(O)c1C(=O)/C=C/c1ccc3c(c1)OCO3)C=CC(C)(C)O2 |  |  | Active
COc1cc2c(c(O)c1C(=O)/C=C/c1ccc(O)cc1)C=CC(C)(CCC=C(C)C)O2 (stereo not drawn) |  |  | inactive
COc1cc2c(c(O)c1C(=O)/C=C/c1ccc(O)cc1)CCC(C)(C)O2 |  |  | Active
COc1cc2c(c(O)c1C(=O)/C=C/c1ccc(O)c(O)c1)C=CC(C)(C)O2 | Non-Toxic |  | Active
COc1cc2c(c3c1C(=O)CC(c1ccc(O)cc1)O3)C=CC(C)(C)O2 (stereo not drawn) |  |  | Active
CC1(C)C=Cc2c(cc(O)c3c2OC(c2ccc(O)cc2)CC3=O)O1 (stereo not drawn) |  |  | Active
CC1(C)C=Cc2c(cc3c(c2O)C(=O)CC(c2ccc(O)cc2)O3)O1 (stereo not drawn) |  |  | Active
COc1cc2c(c(O)c1C(=O)/C=C/c1ccc(O)cc1)C=CC(C)(C)O2 [XANTHOHUMOL C] | Non-Toxic | 1.56 | 
COc1ccc(/C=C/C(=O)c2c(OC)cc3c(c2O)C=CC(C)(C)O3)cc1 |  |  | Active

— ChEMBL document CHEMBL4831536, “Neuroregenerative Potential of Prenyl- and Pyranochalcones: A Structure-Activity Study” (J Nat Prod, 2021)
